# Test results published in patent US6635641B2 (Agouron Pharmaceuticals, Inc., priority 2000, dated 2003).
# Counter-ions that a name gives are not always drawn.
# Target: T1, phosphorylated VEGF-R2Δ50 (FLVK-P) (Homo sapiens, UniProt P35968, DEL940-989/E990V)
# T1 construct: VEGF-R2Δ50 contains residues 806-939 and 990-1171; made in house; host or cells: baculovirus/insect cells
# Test: VEGF-R2 coupled spectrophotometric assay, phosphorylated construct (FLVK-P)
# Type: biochemical
# Settings: not given
# From the text: A construct (VEGF-R2Δ50) of the cytosolic domain of human vascular endothelial growth factor receptor 2 (VEGF-R2) lacking the 50 central residues of the 68 residues of the kinase insert domain was expressed in a baculovirus/insect cell system. Of the 1356 residues of full-length VEGF-R2, VEGF-R2Δ50 contains residues 806-939 and 990-1171, and also one point mutation (E990V) within the kinase insert domain relative to wild-type VEGF-R2. See commonly assigned, co-pending U.S. patent application Ser. No. 09/390,326, filed Sep. 7, 1999, incorporated by reference herein, for discussion of VEGF constructs and expression systems. Autophosphorylation of the purified construct was performed by incubation of the enzyme at a concentration of 4 μM in the presence of 3 mM ATP and 40 mM MgCl2 in 100 mM Hepes, pH 7.5, containing 5% glycerol and 5 mM DTT, at 4° C. for 2 h. […] See Parast et al., Biochemistry, 37, 16788-16801 (1998).
# The production of ADP from ATP that accompanies phosphoryl transfer was coupled to oxidation of NADH using phosphoenolpyruvate (PEP) and a system having pyruvate kinase (PK) and lactic dehydrogenase (LDH). The oxidation of NADH was monitored by following the decrease of absorbance at 340 nm (e340=6.22 cm^−1 mM^−1) using a Beckman DU 650 spectrophotometer. Assay conditions for phosphorylated VEGF-R2Δ50 (indicated as FLVK-P in the tables below) were the following: 1 mM PEP; 250 μM NADH; 50 units of LDH/mL; 20 units of PK/mL; 5 mM DTT; 5.1 mM poly(E4Y1); 1 mM ATP; and 25 mM MgCl2 in 200 mM Hepes, pH 7.5. Assay conditions for unphosphorylated VEGF-R2Δ50 (indicated as FLVK in the tables) were the following: 1 mM PEP; 250 μM NADH; 50 units of LDH/mL; 20 units of PK/mL; 5 mM DTT; 20 mM poly(E4Y1); 3 mM ATP; and 60 mM MgCl2 and 2 mM MnCl2 in 200 mM Hepes, pH 7.5. Assays were initiated with 5 to 40 nM of enzyme. Ki values were determined by measuring enzyme activity in the presence of varying concentrations of test compounds. The data were analyzed using Enzyme Kinetic and Kaleidagraph software.
# T1 sequence (P35968 with tags, fused parts or gaps DEL940-989/E990V limits assumed): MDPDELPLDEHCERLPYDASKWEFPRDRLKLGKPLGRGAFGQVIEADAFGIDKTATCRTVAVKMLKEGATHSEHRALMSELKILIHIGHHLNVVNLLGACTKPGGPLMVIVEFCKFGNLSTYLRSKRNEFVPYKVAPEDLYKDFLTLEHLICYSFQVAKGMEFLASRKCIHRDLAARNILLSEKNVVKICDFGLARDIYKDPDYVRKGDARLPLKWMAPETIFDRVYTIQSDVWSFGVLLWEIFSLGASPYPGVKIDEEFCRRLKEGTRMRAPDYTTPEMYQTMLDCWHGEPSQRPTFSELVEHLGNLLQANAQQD
row,Ki,SMILES
1,17 µM,"COc1ccccc1NC(=O)c1cccc(CSc2ncnc3[nH]ncc23)c1 [Example B-9, N-(2-Methoxyphenyl)-3-[(1H-pyrazolo[3,4-d]pyrimidin-4-yl)sulfanylmethyl]benzamide]"
2,13 µM,"Cc1cc(NC(=O)c2cccc(CSc3nc(N)n[nH]3)c2)ccc1C(C)C [Example A-4, N-(4-Isopropyl-3-methylphenyl)-3-[(5-amino-2H-[1,2,4]triazol-3-yl)sulfanylmethyl]benzamide]"
3,0.068 µM,"Cc1ccc2cc(NC(=O)c3cccc(CCc4cccnc4)c3)ccc2n1 [Example U-1, N-(2-Methyl-quinolin-6-yl)-3-(2-pyridin-3-yl-ethyl)-benzamide hydrochloride]"
4,0.026 µM,O=C(Nc1cccc(OC(F)(F)F)c1)c1cccc(CSc2ncnc3[nH]ncc23)c1 [Example B-20]
5,0.037 µM,"O=C(Nc1cccc(S(=O)(=O)C(F)(F)F)c1)c1cccc(CSc2ncnc3[nH]ncc23)c1 [Example B-24, 3-[(1H-Pyrazolo[3,4-d]pyrimidin-4-yl)sulfanylmethyl]-N(3-trifluoromethylsulfonylphenyl)-benzamide]"
6,3.31 µM,"COc1ccccc1CNC(=O)c1cccc(CSc2ncnc3[nH]ncc23)c1 [Example B-7, N-(2-Methoxybenzyl)-3-[(1H-pyrazolo[3,4-d]pyrimidin-4-yl)sulfanylmethyl]benzamide]"
7,0.2 µM,"O=C(Nc1ccc2ccccc2c1)c1cccc(OCc2cccnc2)c1 [Example K-6, N-(Naphthalen-2-yl)-3-(pyridin-3-yl)methoxybenzamide]"
8,0.208 µM,"Cc1cc(C)cc(NC(=O)c2cccc(CSc3ncnc4[nH]ncc34)c2)c1 [Example B-21, 3-[(1H-Pyrazolo[3,4-d]pyrimidin-4-yl)sulfanylmethyl]-N(3,5-dimethylphenyl)-benzamide]"
9,0.707 µM,"O=C(Nc1ccc2ncccc2c1)c1cccc(OCc2cccnc2)c1 [Example K-8, 3-(Pyridin-3-yl)methoxy-N-quinolin-6-yl-benzamide]"
10,1.82 µM,COc1ccc(NC(=O)c2cccc(CSc3ncnc4[nH]ncc34)c2)cn1 [Example B-2]
11,1.27 µM,"COc1cc(NC(=O)c2cccc(OCc3cccnc3)c2)cc(OC)c1OC [Example K-5, 3-(Pyridin-3-yl)methoxy-N-(3,4,5-trimethoxyphenyl)benzamide]"
12,11 µM,"O=C(NCc1ccncc1)c1cccc(CSc2ncnc3[nH]ncc23)c1 [Example B-5, N-(Pyridin-4-yl)methyl-3-[(1H-pyrazolo[3,4-d]pyrimidin-4-yl)sulfanylmethyl]benzamide]"
13,0.122 µM,"C=CCn1ccc2cc(NC(=O)c3cccc(OCc4cccnc4)c3)ccc21 [Example K-7, N-(1-Allyl-1H-indol-5-yl)-3-(pyridin-3-yl)methoxy-benzamide]"
14,0.0136 µM,"Cc1cc(NC(=O)c2cc(CCc3cncc4ccccc34)ccc2F)ccc1C(C)C [Example T-1, 2-Fluoro-N-(4-isopropyl-3-methyl-phenyl)-5-(2-isoquinolin-4-yl-ethyl)-benzamide]"
15,0.133 µM,"Cc1ccc2cc(NC(=O)c3cccc(SCc4cccnc4)c3)ccc2n1 [Example D-3, N-(2-Methyl-quinolin-6-yl)-3-(pyridin-3-ylmethylsulfanyl)-benzamide dihydrochloride]"
16,0.138 µM,"COc1cc(NC(=O)c2cccc(OCc3cncc4ccccc34)c2)cc(OC)c1OC [Example K-2, 3-(Isoquinolin-4-yl)methoxy-N-(3,4,5-trimethoxyphenyl)benzamide hydrochloride]"
17,35 µM,"Cc1cc(NC(=O)c2cccc(CSc3ncnc4[nH]ncc34)c2)no1 [Example B-4, N-(5-Methylisoxazol-3-yl)-3-[(1H-pyrazolo[3,4-d]pyrimidin-4-yl)sulfanylmethyl]benzamide]"
18,0.325 µM,"O=C(NOCc1ccccc1)c1cccc(OCc2cncc3ccccc23)c1 [Example R-7, N-Benzyloxy-3-(isoquinolin-4-ylmethoxy)-benzamide]"

# Same assay, conditions: @ 50 nM; read-out: FLVK-P percent inhibition
row,inhibition at 0.05 µM,SMILES
1,6%,"Cc1cc(C)nc(NC(=O)c2cccc(CCc3cncc4ccccc34)c2)c1 [Example S-6, N-(4,6-Dimethyl-pyridin-2-yl)-3-(2-isoquinolin-4-yl-ethyl)-benzamide]"
2,49%,"C=CCc1cc(NC(=O)c2cccc(OCc3cncc4ccccc34)c2)cc(CC=C)c1C [Example R-1, N-(3,5-Diallyl-4-methyl-phenyl)-3-(isoquinolin-4-ylmethoxy)-benzamide]"

# Same assay, conditions: @ 1 μM; read-out: FLVK-P percent inhibition
row,inhibition at 1 µM,SMILES
1,42%,"CC(C)c1ccc(NC(=O)c2cccc(CSc3ncnc4[nH]ncc34)c2)cc1 [Example B-19, 3-[(1H-Pyrazolo[3,4-d]pyrimidin-4-yl)sulfanylmethyl]-N(4-isopropylphenyl)-benzamide]"
2,28%,"CC1CC(NC(=O)c2cccc(CCc3cncc4ccccc34)c2)CC(C)(C)C1 (centres unmarked) [Example S-2, 3-(2-Isoquinolin-4-yl-ethyl)-N-(3,3,5-trimethyl-cyclohexyl)-benzamide]"
3,16%,"COc1cc(/C=C/c2cc(CNc3cccc(C(=O)Nc4ccccc4)c3)n[nH]2)ccc1O [Example I-2, 3-[({5-[(E)-2-(4-hydroxy-3-methoxyphenyl)ethenyl]-1H-pyrazol-3-yl}methyl)amino]-N-phenylbenzamide]"
4,42%,"COc1cc(C(=O)Nc2cccc(CSc3ncnc4[nH]ncc34)c2)ccc1O [Example V-3, N-{3-[(1H-pyrazolo[3,4-d]-pyrimidin-4-yl)sulfanylmethyl]phenyl}-(4-hydroxy-3-methoxy)benzamide]"
5,26%,"CN(C)c1cccc(NC(=O)c2cccc(CSc3ncnc4[nH]ncc34)c2)c1 [Example B-25, 3-[(1H-Pyrazolo[3,4-d]pyrimidin-4-yl)sulfanylmethyl]-N(3-dimethylaminophenyl)-benzamide]"
6,9%,"Cc1cc(C)c2ccc(NC(=O)c3cccc(OCc4cncc5ccccc45)c3)nc2n1 [Example R-9, N-(5,7-dimethyl[1,8]naphthydrin-2-yl)-3-(isoquinolin-4-ylmethoxy)-benzamide]"
7,17%,"CN(C)c1ccc(NC(=O)c2cccc(CSc3ncnc4[nH]ncc34)c2)cc1 [Example B-23, 3-[(1H-Pyrazolo[3,4-d]pyrimidin-4-yl)sulfanylmethyl]-N(4-dimethylaminophenyl)-benzamide]"
8,32%,CC(O)c1cccc(NC(=O)c2cccc(CSc3ncnc4[nH]ncc34)c2)c1 (centres unmarked) [Example B-22]

row,SMILES,inhibition at 1 µM
1,"O=C(Nc1ccccc1)c1cccc(CCc2cncc3ccccc23)c1 [Example S-1, 3-(2-Isoquinolin-4-yl-ethyl)-N-phenyl-benzamide]",2%

# Same assay, conditions: @ 5 μM; read-out: FLVK-P percent inhibition
row,inhibition at 5 µM,SMILES
1,4%,"O=C(NNc1ccccc1)c1cccc(OCc2cncc3ccccc23)c1 [Example R-8, 3-(Isoquinolin-4-ylmethoxy)-benzoic acid N′-phenyl-hydrazide]"
2,16%,"O=C(NNc1ccc(C(F)(F)F)cc1)c1cccc(OCc2cncc3ccccc23)c1 [Example R-6, 3-(Isoquinolin-4-ylmethoxy)-benzoic acid N′-(4-trifluoromethyl-phenyl)hydrazide]"

# Same assay, conditions: μM
row,Ki,SMILES
1,100 µM,"COc1cc(NC(=O)c2cccc(CSc3nc(N)n[nH]3)c2)cc(OC)c1OC [Example A-2, N-(3,4,5-Trimethoxyphenyl)-3-[(5-amino-2H-[1,2,4]triazol-3-yl)sulfanylmethy]benzamide]"
